Experimental data reported in publication PMC9636582 (The Journal of Biological Chemistry, 2022).

Experiments:
VP16-PPARα / GAL4-SRC-1 = target: T1, VP16-PPARα / GAL4-SRC-1 (Homo sapiens, UniProt Q07869); test: mammalian two-hybrid assay, VP16-PPARα and coactivator GAL4-SRC-1; type: cell-based; conditions: 30 μM fatty acids, 1 μM GW7647, HEK293 cells, Fig. 3B
T1 construct: expressed in transfected cells; host or cells: HEK293
T1 sequence (Q07869 1-468): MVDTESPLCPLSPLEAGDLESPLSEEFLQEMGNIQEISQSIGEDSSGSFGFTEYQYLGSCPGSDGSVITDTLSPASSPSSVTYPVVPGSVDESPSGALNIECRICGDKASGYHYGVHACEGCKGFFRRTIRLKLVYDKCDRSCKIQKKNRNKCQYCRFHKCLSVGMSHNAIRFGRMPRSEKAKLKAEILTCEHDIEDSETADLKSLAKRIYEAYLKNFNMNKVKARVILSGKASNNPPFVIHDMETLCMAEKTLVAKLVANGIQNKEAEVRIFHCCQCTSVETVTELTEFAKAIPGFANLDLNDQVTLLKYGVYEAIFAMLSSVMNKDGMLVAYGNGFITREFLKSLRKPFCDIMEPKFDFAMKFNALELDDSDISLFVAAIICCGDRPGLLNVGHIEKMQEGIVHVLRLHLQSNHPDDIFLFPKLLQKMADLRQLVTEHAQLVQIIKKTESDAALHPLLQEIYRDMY
T1 sequence (Q15788 595-771 partner limits assumed): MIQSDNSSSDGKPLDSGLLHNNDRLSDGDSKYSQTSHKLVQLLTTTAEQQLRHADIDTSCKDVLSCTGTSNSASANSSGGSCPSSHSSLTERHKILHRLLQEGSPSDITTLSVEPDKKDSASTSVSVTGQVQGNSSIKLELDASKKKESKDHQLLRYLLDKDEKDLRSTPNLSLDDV

VP16-PPARδ / GAL4-SRC-1 = target: T2, VP16-PPARδ / GAL4-SRC-1 (Homo sapiens, UniProt Q03181); test: mammalian two-hybrid assay, VP16-PPARδ and coactivator GAL4-SRC-1; type: cell-based; conditions: 30 μM fatty acids, 100 nM GW1516, HEK293 cells, Fig. 3A
T2 construct: expressed in transfected cells; host or cells: HEK293
T2 sequence (Q03181 1-441): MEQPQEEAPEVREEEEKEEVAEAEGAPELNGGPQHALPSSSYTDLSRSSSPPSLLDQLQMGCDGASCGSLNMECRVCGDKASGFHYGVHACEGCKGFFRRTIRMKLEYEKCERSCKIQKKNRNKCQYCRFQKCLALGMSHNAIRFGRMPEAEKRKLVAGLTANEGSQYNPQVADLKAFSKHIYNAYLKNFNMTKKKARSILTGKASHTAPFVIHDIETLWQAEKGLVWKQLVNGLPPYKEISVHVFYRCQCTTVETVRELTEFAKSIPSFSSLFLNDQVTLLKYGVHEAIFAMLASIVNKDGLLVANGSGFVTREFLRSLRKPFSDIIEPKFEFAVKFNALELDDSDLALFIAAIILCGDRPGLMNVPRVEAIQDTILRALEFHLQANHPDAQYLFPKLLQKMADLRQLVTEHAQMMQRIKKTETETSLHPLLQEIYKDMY
T2 sequence (Q15788 595-771 partner limits assumed): T1 sequence (Q15788 595-771 partner limits assumed)

[1] = system: human intestinal organoids; test: fatty acid β-oxidation activity in living organoids (FAOBlue); type: cell-based; conditions: organoids pretreated with 500 μM oleic acid 48 h, then 1 μM GW1516 or 30 μM fatty acids 24 h
full-length PPARα = full-length PPARα (Homo sapiens, UniProt Q07869); conditions: PPRE luciferase reporter, HEK293 cells, Fig. 1C
full-length PPARδ = target: T3, full-length PPARδ (Homo sapiens, UniProt Q03181); test: full-length PPARδ PPRE luciferase reporter assay in HEK293 cells; type: cell-based; conditions: Fig. 1C
T3 construct: expressed in transfected cells; host or cells: HEK293
T3 sequence (Q03181 1-441): T2 sequence (Q03181 1-441)
Description: Luciferase activities were normalized to β-galactosidase activities.

VP16-PPARα / GAL4-NCoR = target: T4, VP16-PPARα / GAL4-NCoR (Homo sapiens, UniProt Q07869); test: mammalian two-hybrid assay, VP16-PPARα and corepressor NCoR; type: cell-based; conditions: 30 μM fatty acids, HEK293 cells, Fig. 3D
T4 construct: expressed in transfected cells; host or cells: HEK293
T4 sequence (Q07869 1-468): T1 sequence (Q07869 1-468)

VP16-PPARδ / GAL4-NCoR = target: T5, VP16-PPARδ / GAL4-NCoR (Homo sapiens, UniProt Q03181); test: mammalian two-hybrid assay, VP16-PPARδ and corepressor NCoR; type: cell-based; conditions: 30 μM fatty acids, HEK293 cells, Fig. 3C
T5 construct: expressed in transfected cells; host or cells: HEK293
T5 sequence (Q03181 1-441): T2 sequence (Q03181 1-441)

[2] = system: human intestinal organoids; test: PPARδ target gene mRNA expression in human intestinal organoids (RT-qPCR); type: cell-based; conditions: 1 μM GW1516 or 30 μM fatty acids for 24 h

SMILES	recruitment of coactivator SRC-1 to PPARα (VP16-PPARα / GAL4-SRC-1)	recruitment of coactivator SRC-1 to PPARδ (VP16-PPARδ / GAL4-SRC-1)	fatty acid β-oxidation activity [1]	transactivation of full-length PPARα (in words) (full-length PPARα)	transactivation of full-length PPARδ (in words) (full-length PPARδ)	interaction between PPARα and corepressor NCoR (VP16-PPARα / GAL4-NCoR)	interaction between PPARδ and corepressor NCoR (VP16-PPARδ / GAL4-NCoR)	expression of PPARδ target genes (CPT1A, HMGCS2, PDK4, ACSL1) [2]
CCCCC/C=C\C/C=C\C/C=C\CCCCC(=O)O [GLA, γ-linolenic acid, reference compound]	not	not	not	activated almost equally	not			
CCCCCC(O)CCC=CCC=CCCCCC(=O)O (stereo not drawn) [γHYD, 13-hydroxy-cis-6,cis-9-octadecadienoic acid]	induced coactivator-recruitment	induced coactivator-recruitment	enhanced fatty acid β-oxidation		activated PPARδ potently	reduced the interaction	reduced the interaction	increased the expression of PPARδ target genes
CCCCCC(=O)CCC=CCC=CCCCCC(=O)O [γKetoD, 13-oxo-cis-6,cis-9-octadecadienoic acid]	induced coactivator-recruitment	induced coactivator-recruitment	enhanced fatty acid β-oxidation		activated PPARδ potently	reduced the interaction	reduced the interaction	increased the expression of PPARδ target genes
